Measured values reported in patent US20260183295A1, “METHODS AND COMPOSITIONS FOR TREATING CANCER” (Onconova Therapeutics, Inc., priority 2022, published 2026).

Experiments:
pRb [1] = assay: Western blot after 2 h treatment, MDA-MB-231; type: cell-based; settings: 5 μM, relative to DMSO control
Experimental: (§1) Following treatment, a sample of each of the three treatments was analyzed by Western Blot for expression of phosphoprotein targets.

pRb pSer807/811 = assay: Western blot after 2 h treatment, MDA-MB-231; type: cell-based; settings: 5 μM, relative to DMSO control
Experimental: as §1

BUB1 in MDA-MB-231 = assay: BUB1 levels after 72 hours treatment; type: cell-based; settings: MDA-MB-231 (TNBC)
Experimental: (§2) The effects on the different treatment conditions on BUB 1 levels and PARP cleavage were also assessed. For both MNA-MB-231 cells, Compound 1 alone or with HCQ or SBI decreased BUB1 levels and cleaved PARP with […] decreases in cell viability observed for all treatments except Compound 1+SBI in MMA-MB-231 cells. The effects of Compound 1 with or without autophagy inhibitors was less pronounced in HCC-1937 cells.

BUB1 in MDA-MB-468 = assay: BUB1 levels after 72 hours treatment; type: cell-based; settings: MDA-MB-468 (TNBC)
Experimental: as §2

MDA-MB-231 cells [2] = assay: Annexin V/PI staining with or without bafilomycin A1, 2 days; type: cell-based; settings: 5 μM
Excerpt: The effect was increased with bafilomycin A1 cotreatment.

NUAK1 = target: T1, NUAK1 (Homo sapiens, UniProt O60285); assay: NUAK1 NanoBret; type: cell-based
T1 sequence (O60285 1-661): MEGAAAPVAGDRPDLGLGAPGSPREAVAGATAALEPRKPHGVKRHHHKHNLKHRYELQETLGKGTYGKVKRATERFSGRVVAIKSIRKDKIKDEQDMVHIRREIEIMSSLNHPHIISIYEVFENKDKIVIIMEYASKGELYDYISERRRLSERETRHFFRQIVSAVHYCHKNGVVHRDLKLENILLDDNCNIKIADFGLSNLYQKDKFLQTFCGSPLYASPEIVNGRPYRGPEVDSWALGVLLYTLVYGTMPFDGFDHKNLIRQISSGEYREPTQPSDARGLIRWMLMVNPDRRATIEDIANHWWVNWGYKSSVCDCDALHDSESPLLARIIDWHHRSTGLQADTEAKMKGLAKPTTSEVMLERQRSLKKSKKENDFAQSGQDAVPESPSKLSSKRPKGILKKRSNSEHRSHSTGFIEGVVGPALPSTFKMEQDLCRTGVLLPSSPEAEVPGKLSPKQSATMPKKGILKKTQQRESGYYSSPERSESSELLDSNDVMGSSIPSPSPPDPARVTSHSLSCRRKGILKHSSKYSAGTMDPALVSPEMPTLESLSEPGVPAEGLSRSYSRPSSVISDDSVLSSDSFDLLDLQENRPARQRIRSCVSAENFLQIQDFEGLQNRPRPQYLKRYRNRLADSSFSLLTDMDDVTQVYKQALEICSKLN

PyMT cells = assay: Growth and recovery, 6 days treatment and 4 days recovery, cell counts; type: cell-based, mouse; settings: 6 days treatment, counted on days 0, 3, 6, 10
Excerpt: Following 6 days of treatment, the drug treatments were stopped and the cells allowed to recover for 4 days. Cell numbers were counted on days 0, 3, 6, and 10, and the results plotted.

GSK3B = target: T2, GSK3B (Homo sapiens, UniProt P49841); assay: CETSA-MS, MDA-MB-231 cell lysates; type: binding; settings: 2 μM and 20 μM
T2 construct: endogenous in cells; host or cells: MDA-MB-231
Experimental: (§3) Following treatment, cell lysates were thermally treated in a thermal gradient profile across a temperature range. Following the thermal shift, cell lysates were spun by centrifuge to pellet aggregate protein and the supernatant withdrawn. The supernatant was then denatured in buffer and heated to denature, reduce, and alkylate the supernatant proteins. Following heating and cooling to room temperature, cold acetone was added to the supernatant samples and proteins precipitated.
(§4) The intact cell protein samples and lysate protein samples were then digested and labeled for mass spectrometry analysis according to the manufacturer's recommended protocols. Digested and labeled protein samples were analyzed by mass spectrometry proteomic analysis and the resulting protein targets were analyzed and plotted.

SLK = target: T3, SLK (Homo sapiens, UniProt Q9H2G2); assay: CETSA-MS, MDA-MB-231 cell lysates; type: binding; settings: 2 μM and 20 μM
T3 construct: endogenous in cells; host or cells: MDA-MB-231
Experimental: as §3, §4

USF2 = target: T4, USF2 (Homo sapiens, UniProt Q15853); assay: CETSA-MS, MDA-MB-231 cell lysates; type: binding; settings: 2 μM and 20 μM
T4 construct: endogenous in cells; host or cells: MDA-MB-231
Experimental: as §3, §4

CDK2 = target: T5, CDK2 (Homo sapiens, UniProt P24941); assay: CETSA-MS, MDA-MB-231 cell lysates; type: binding; settings: 2 μM and 20 μM
T5 construct: endogenous in cells; host or cells: MDA-MB-231
Experimental: as §3, §4

PER3 = target: T6, PER3 (Homo sapiens, UniProt P56645); assay: CETSA-MS, MDA-MB-231 cell lysates; type: binding; settings: 2 μM and 20 μM
T6 construct: endogenous in cells; host or cells: MDA-MB-231
Experimental: as §3, §4

CDK5 = target: T7, CDK5 (Homo sapiens, UniProt Q00535); assay: CETSA-MS, MDA-MB-231 cell lysates; type: binding; settings: 2 μM and 20 μM
T7 construct: endogenous in cells; host or cells: MDA-MB-231
Experimental: as §3, §4

BUB1 = BUB1 (Homo sapiens, UniProt O43683); assay: CETSA-MS, MDA-MB-231 cell lysates; type: binding; settings: 2 μM and 20 μM
Experimental: as §3, §4

TBK1 = target: T8, TBK1 (Homo sapiens, UniProt Q9UHD2); assay: CETSA-MS, MDA-MB-231 cell lysates; type: binding; settings: 2 μM and 20 μM
T8 construct: endogenous in cells; host or cells: MDA-MB-231
Experimental: as §3, §4

CDC42BPB = target: T9, CDC42BPB (Homo sapiens, UniProt Q9Y5S2); assay: CETSA-MS, MDA-MB-231 cell lysates; type: binding; settings: 2 μM and 20 μM
T9 construct: endogenous in cells; host or cells: MDA-MB-231
Experimental: as §3, §4

STK17B = target: T10, STK17B (Homo sapiens, UniProt O94768); assay: CETSA-MS, MDA-MB-231 cell lysates; type: binding; settings: 2 μM and 20 μM
T10 construct: endogenous in cells; host or cells: MDA-MB-231
Experimental: as §3, §4

ATAT1 = target: T11, ATAT1 (Homo sapiens, UniProt Q5SQI0); assay: CETSA-MS, MDA-MB-231 cell lysates; type: binding; settings: 2 μM and 20 μM
T11 construct: endogenous in cells; host or cells: MDA-MB-231
Experimental: as §3, §4

LIMK1 = target: T12, LIMK1 (Homo sapiens, UniProt P53667); assay: CETSA-MS, MDA-MB-231 cell lysates; type: binding; settings: 2 μM and 20 μM
T12 construct: endogenous in cells; host or cells: MDA-MB-231
Experimental: as §3, §4

MAPKAPK5 = target: T13, MAPKAPK5 (Homo sapiens, UniProt Q8IW41); assay: CETSA-MS, MDA-MB-231 cell lysates; type: binding; settings: 2 μM and 20 μM
T13 construct: endogenous in cells; host or cells: MDA-MB-231
Experimental: as §3, §4

pRb [3] = assay: Western blot, MDA-MB-231 cells, 24 hours; type: cell-based; settings: 2.5, 5, 10 μM, versus Comparator 1, 2 and 4
Hs578t cells = assay: Wound healing assay (24 Hour Migration Assay); type: cell-based; settings: 1.0 μM and 10.0 μM
Experimental: (§5) A cell-free area was created in a confluent monolayer by physical exclusion or by removing the cells from the area through mechanical, thermal or chemical damage. The exposure to the cell-free area induced the cells to migrate into the gap. The rate of gap closure was measured and plotted.

MDA-MB-231 cells [4] = assay: Wound healing assay (24 Hour Migration Assay); type: cell-based; settings: MDA-MB-231, 1.0 μM and 10.0 μM
Experimental: as §5

Hs578T spheroids = assay: Spheroid imaging (Hoechst, F-actin); type: cell-based; settings: 5 μM, compared to DMSO, Comparator 1 and Comparator 2 (FIG. 18)

T11 sequence (Q5SQI0 whole entry): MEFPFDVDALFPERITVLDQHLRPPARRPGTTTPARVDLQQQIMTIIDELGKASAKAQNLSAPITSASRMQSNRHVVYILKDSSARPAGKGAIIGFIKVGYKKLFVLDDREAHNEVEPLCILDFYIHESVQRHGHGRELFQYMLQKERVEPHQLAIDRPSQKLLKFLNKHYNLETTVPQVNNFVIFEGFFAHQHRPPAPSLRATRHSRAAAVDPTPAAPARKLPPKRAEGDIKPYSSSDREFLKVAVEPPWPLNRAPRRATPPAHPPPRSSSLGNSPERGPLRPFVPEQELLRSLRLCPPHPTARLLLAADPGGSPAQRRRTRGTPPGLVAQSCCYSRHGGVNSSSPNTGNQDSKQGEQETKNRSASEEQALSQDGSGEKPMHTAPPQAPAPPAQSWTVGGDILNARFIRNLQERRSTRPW
T8 sequence (Q9UHD2 whole entry): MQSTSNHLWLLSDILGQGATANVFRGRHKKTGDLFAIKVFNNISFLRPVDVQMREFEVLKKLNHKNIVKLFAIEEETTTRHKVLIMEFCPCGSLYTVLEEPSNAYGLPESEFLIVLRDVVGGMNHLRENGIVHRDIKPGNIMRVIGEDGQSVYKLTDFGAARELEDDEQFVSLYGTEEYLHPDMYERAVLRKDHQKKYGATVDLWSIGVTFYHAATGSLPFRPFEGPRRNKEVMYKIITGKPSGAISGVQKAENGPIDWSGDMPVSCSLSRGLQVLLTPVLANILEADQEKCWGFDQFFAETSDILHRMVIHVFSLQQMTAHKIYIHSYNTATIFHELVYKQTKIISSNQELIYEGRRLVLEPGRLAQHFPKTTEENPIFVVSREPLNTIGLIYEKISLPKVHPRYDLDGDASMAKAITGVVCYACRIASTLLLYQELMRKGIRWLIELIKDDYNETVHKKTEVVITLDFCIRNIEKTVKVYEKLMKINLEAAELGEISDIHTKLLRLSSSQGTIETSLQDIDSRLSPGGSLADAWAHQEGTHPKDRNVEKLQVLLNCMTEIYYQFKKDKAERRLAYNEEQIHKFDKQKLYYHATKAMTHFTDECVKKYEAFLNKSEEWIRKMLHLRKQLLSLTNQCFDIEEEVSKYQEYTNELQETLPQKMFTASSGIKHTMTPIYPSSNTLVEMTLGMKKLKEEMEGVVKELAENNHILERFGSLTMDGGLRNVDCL
T7 sequence (Q00535 whole entry): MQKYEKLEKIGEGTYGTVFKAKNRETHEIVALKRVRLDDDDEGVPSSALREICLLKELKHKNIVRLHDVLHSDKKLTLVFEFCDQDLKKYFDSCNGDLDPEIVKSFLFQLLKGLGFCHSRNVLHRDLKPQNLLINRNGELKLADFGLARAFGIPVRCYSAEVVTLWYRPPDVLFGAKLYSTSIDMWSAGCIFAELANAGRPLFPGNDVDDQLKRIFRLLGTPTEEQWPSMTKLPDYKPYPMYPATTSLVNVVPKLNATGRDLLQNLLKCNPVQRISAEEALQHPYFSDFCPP
T3 sequence (Q9H2G2 whole entry): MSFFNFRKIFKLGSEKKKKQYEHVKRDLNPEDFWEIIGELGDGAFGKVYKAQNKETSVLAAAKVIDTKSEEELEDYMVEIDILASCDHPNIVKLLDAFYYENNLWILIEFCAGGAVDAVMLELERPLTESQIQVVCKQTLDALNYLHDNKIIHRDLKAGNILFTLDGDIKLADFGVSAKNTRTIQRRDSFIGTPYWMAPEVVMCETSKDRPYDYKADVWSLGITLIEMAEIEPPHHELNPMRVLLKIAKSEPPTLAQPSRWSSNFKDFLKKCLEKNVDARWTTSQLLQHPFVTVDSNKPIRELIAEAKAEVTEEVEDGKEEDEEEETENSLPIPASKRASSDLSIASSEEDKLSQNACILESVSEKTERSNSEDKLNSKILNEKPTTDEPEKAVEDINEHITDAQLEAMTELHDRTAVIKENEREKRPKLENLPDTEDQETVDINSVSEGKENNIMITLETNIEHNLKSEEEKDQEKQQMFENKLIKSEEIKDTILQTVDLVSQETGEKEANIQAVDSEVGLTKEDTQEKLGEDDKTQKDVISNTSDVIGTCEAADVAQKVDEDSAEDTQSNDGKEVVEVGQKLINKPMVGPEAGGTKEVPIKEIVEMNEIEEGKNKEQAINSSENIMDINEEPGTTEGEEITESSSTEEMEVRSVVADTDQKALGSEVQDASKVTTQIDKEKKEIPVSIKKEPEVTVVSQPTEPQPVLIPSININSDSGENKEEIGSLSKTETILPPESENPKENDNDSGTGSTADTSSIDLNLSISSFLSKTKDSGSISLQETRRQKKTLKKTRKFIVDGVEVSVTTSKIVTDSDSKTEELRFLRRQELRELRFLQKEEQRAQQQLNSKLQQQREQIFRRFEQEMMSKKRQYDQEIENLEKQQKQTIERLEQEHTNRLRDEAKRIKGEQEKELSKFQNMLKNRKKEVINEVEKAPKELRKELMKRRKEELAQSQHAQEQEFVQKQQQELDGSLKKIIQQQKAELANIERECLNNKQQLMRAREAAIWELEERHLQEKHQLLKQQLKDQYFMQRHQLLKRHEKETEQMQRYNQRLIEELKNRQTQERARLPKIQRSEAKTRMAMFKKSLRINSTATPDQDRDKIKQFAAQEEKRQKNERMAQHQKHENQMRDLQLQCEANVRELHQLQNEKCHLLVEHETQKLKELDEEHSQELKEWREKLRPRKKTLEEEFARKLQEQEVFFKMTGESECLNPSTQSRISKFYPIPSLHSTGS
T4 sequence (Q15853 whole entry): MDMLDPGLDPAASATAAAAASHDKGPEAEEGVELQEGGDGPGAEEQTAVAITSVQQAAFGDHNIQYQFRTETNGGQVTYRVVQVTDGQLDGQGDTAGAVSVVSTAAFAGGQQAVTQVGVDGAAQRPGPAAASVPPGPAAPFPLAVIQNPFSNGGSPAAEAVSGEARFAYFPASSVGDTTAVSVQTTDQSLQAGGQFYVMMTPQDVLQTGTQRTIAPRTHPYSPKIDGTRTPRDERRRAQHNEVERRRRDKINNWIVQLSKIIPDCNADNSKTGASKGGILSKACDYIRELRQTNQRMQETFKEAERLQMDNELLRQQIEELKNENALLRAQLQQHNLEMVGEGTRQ
T9 sequence (Q9Y5S2 whole entry): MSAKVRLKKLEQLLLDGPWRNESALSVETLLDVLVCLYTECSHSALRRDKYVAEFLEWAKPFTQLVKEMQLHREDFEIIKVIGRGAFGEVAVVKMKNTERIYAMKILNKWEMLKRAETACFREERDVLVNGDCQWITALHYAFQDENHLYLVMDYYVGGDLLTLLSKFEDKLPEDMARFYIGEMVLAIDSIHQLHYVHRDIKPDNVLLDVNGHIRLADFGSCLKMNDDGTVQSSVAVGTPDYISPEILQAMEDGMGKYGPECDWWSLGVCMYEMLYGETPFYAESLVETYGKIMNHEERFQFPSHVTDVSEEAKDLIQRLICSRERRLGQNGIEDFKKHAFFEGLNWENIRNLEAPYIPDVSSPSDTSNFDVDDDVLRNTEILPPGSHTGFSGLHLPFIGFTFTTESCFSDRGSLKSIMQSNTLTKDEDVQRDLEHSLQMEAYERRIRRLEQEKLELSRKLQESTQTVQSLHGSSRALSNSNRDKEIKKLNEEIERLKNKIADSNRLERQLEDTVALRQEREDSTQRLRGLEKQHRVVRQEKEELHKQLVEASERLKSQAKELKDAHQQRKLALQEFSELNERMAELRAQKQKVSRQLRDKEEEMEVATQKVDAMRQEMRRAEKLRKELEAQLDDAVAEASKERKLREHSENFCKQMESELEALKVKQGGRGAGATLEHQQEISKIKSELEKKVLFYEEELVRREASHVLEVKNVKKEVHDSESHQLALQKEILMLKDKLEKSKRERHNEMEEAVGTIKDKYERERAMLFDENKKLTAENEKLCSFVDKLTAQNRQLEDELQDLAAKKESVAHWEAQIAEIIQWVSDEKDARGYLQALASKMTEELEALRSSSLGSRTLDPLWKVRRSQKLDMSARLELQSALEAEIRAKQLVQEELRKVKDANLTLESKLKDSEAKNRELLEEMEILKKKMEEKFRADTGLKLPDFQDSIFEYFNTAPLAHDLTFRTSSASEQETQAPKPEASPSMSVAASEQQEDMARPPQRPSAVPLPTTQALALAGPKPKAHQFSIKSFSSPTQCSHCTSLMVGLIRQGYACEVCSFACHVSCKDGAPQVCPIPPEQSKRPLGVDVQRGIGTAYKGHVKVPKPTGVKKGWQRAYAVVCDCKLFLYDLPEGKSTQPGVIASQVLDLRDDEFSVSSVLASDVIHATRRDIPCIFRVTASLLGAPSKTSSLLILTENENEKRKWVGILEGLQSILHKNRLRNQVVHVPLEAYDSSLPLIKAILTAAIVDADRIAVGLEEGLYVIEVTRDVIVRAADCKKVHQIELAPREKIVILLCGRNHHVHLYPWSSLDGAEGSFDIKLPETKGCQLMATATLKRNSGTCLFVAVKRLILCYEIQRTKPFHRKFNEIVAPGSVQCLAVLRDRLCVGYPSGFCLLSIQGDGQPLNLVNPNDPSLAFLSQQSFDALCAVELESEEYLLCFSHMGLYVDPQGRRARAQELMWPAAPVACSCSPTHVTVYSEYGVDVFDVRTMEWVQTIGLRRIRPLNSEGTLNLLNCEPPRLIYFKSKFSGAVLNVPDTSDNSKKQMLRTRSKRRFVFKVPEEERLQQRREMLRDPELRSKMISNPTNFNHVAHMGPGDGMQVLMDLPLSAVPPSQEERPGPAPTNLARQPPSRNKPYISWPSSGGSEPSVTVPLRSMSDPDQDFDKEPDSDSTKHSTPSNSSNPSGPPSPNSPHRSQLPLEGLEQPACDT

CN1CCN(c2ccc(Nc3ncc4cc(C#N)c(=O)n(C5CCCC5)c4n3)cc2)CC1 [Compound 1, 8-cyclopentyl-2-((4-(4-methylpiperazin-1-yl)phenyl)amino)-7-oxo-7,8-dihydropyrido[2,3-d]pyrimidine-6-carbonitrile]
pRb levels (pRb [1]): decreased pRb levels | phosphorylation of pRb at Ser807/811 (pRb pSer807/811): decreased phosphorylation | BUB1 (BUB1 in MDA-MB-231): ↓ | BUB1 (BUB1 in MDA-MB-468): ↓ | cell death (Annexin V/PI), compound alone (MDA-MB-231 cells [2]): induced cell death | effect of bafilomycin A1 cotreatment on cell death (Annexin V/PI) (MDA-MB-231 cells [2]): increased | IC50 (NUAK1): 42 nM | PyMT cell numbers, treatment and recovery phase (PyMT cells): small decrease in cell number at day 3 that then increased throughout the rest of the experiment | Group (CETSA-MS thermal shift) (GSK3B): Stabilization | Group (CETSA-MS thermal shift) (SLK): Stabilization | Group (CETSA-MS thermal shift) (USF2): Stabilization | Group (CETSA-MS thermal shift) (CDK2): Stabilization | Group (CETSA-MS thermal shift) (PER3): Stabilization | Group (CETSA-MS thermal shift) (CDK5): Stabilization | Group (CETSA-MS thermal shift) (BUB1): Stabilization | Group (CETSA-MS thermal shift) (TBK1): Destabilization | Group (CETSA-MS thermal shift) (CDC42BPB): Destabilization | Group (CETSA-MS thermal shift) (STK17B): Stabilization | Group (CETSA-MS thermal shift) (ATAT1): Stabilization | Group (CETSA-MS thermal shift) (LIMK1): Stabilization | Group (CETSA-MS thermal shift) (MAPKAPK5): Destabilization | pRb levels (pRb [3]): decreasing | cell migration (rate of gap closure) (Hs578t cells): inhibited cell migration significantly more than Comparator 1 | cell migration (rate of gap closure) (MDA-MB-231 cells [4]): inhibited cell migration significantly more than Comparator 1 | spheroid size (Hs578T spheroids): small decrease in spheroid size
